Results reported in the supplement of paper PMC10307832.

Legend:
Assay in all cases: relative viability (nuclei count vs DMSO), 5 days (fraction); higher = more cells survive
Serdemetan + AZD7762 = compound: c1ccc2c(CCNc3ccc(Nc4ccncc4)cc3)c[nH]c2c1 [Serdemetan] + NC(=O)Nc1cc(-c2cccc(F)c2)sc1C(=O)N[C@H]1CCCNC1 [AZD7762] (partner 0.2 µM)
Summary of the method: (§1)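 Five library-drug doses in √10 steps were combined with a fixed anchor-drug dose, or a single drug was given alone, by pin tool to lung cancer cell lines in 1536-well plates the day after seeding. Nuclei were stained and counted after 5 days. Relative viability is the nuclei count in treated wells over that in vehicle wells, taken as the median of duplicate plates.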

Serdemetan + Phenformin = compound: c1ccc2c(CCNc3ccc(Nc4ccncc4)cc3)c[nH]c2c1 [Serdemetan] + N=C(N)NC(=N)NCCc1ccccc1 [Phenformin] (partner 250 µM)
Summary of the method: as §1

Selisistat + Vorinostat = compound: C1CC(C2=C(C1)C3=C(N2)C=CC(=C3)Cl)C(=O)N [Selisistat] + O=C(CCCCCCC(=O)Nc1ccccc1)NO [Vorinostat] (partner 1 µM)
Summary of the method: as §1

Selisistat + Bortezomib = compound: C1CC(C2=C(C1)C3=C(N2)C=CC(=C3)Cl)C(=O)N [Selisistat] + CC(C)C[C@H](NC(=O)[C@H](Cc1ccccc1)NC(=O)c1cnccn1)B(O)O [Bortezomib] (partner 0.002 µM)
Summary of the method: as §1

NCI-H1755
relative viability (Serdemetan + AZD7762; first compound 0.04 µM): 0.461
relative viability (Serdemetan + AZD7762; first compound 0.1265 µM): 0.45
relative viability (Serdemetan + AZD7762; first compound 0.4 µM): 0.492
relative viability (Serdemetan + AZD7762; first compound 1.265 µM): 0.288
relative viability (Serdemetan + AZD7762; first compound 4 µM): 0.389
relative viability (Serdemetan + Phenformin; first compound 0.04 µM): 0.625
relative viability (Serdemetan + Phenformin; first compound 0.1265 µM): 0.623
relative viability (Serdemetan + Phenformin; first compound 0.4 µM): 0.564
relative viability (Serdemetan + Phenformin; first compound 1.265 µM): 0.469
relative viability (Serdemetan + Phenformin; first compound 4 µM): 0.52
relative viability (Selisistat + Vorinostat; first compound 0.4 µM): 0.831
relative viability (Selisistat + Vorinostat; first compound 1.265 µM): 0.903
relative viability (Selisistat + Vorinostat; first compound 4 µM): 0.975
relative viability (Selisistat + Vorinostat; first compound 12.65 µM): 0.766
relative viability (Selisistat + Vorinostat; first compound 40 µM): 0.928
relative viability (Selisistat + Bortezomib; first compound 0.4 µM): 1.04
relative viability (Selisistat + Bortezomib; first compound 1.265 µM): 0.972
relative viability (Selisistat + Bortezomib; first compound 4 µM): 0.955
relative viability (Selisistat + Bortezomib; first compound 12.65 µM): 1.01
relative viability (Selisistat + Bortezomib; first compound 40 µM): 0.925
